Patent publication US10092564B2, “Use of masitinib for treatment of an amyotrophic lateral sclerosis patient subpopulation” (AB SCIENCE, priority 2016, dated 2018)

Columns and labels:
[1] = tested on: patients suffering from amyotrophic lateral sclerosis (ALS); test: Study AB10015: randomized, double-blind, placebo-controlled phase 2/3 study of masitinib in combination with riluzole versus placebo in combination with riluzole (interim and final analysis); assay type: in vivo, human; settings: for Δ ALSFRS-R = (least squares means) change from baseline to week 48 in ALSFRS-R score: mITT; for Delta [CI] = absolute difference between subpopulations in Δ ALSFRS-R: in points
From the text: There are two distinct populations of ALS patients: a subpopulation of “normal progressors” and a subpopulation of “faster progressors”. The targeted population for primary analysis is the subpopulation of “normal progressors”. “Normal progressors” are defined as ALS patients whose progression of ALSFRS-R score before randomization is less than 1.1 point per month. This population should represent about 80% of ALS patients. The population of “normal progressors+faster progressors” comprises all ALS patients, “normal progressor” ALS patients or “faster progressor” ALS patients. “Faster progressors” are defined as ALS patients whose progression of ALSFRS-R score before randomization is greater than or equal to 1.1 points per month. Main Inclusion Criteria: • Female or male patient aged between 18 and 75 years of age, with a weight >50 kg and body mass index between 18 and 35 kg/m^2; • Familial or sporadic ALS; • Patient diagnosed with laboratory supported, clinically probable or definite ALS according to the World Federation of Neurology Revised El Escorial criteria [Brooks B R. […] For the morning dose, tablets were taken during breakfast. In case of nausea, the administration took place during lunch. For the evening dose, tablets were taken during dinner. Modified Intent-To-Treat (mITT) dataset—The mITT population will include all ITT patients with probable or definite amyotrophic lateral sclerosis who took at least one dose of study treatment (masitinib or placebo). Change from baseline to week 48 in the revised Amyotrophic Lateral Sclerosis Functional Rating Scale (ALSFRS-R) In accordance with study AB10015 protocol, an interim analysis was planned to be performed after around 50% of the information became available for analysis. At the time of the interim analysis, 192 (50%) out of a planned 381 patients who had been randomized before the 12 Feb. 2015 could have reached the week 48 visit. […] The interim analysis primary endpoint is based on the change from baseline to week 48 in ALSFRS-R. Primary analysis was performed in the mITT “normal progressor” (i.e. non-aggressive or moderately aggressive ALS) subpopulation. […] Missing values of ALSFRS-R at study visit were replaced based on the Modified Last Observation Carried Forward (mLOCF) method. Absolute change from baseline to week 48 in ALSFRS-R was estimated using a model of analysis of covariance (ANCOVA) adjusted on following factors: treatment (masitinib or placebo), and stratification criteria of: ALS patient subpopulation, progression of ALSFRS-R score (point/month) from date of first symptom to baseline, ALSFRS-R score at baseline, site of onset (bulbar versus others), age at baseline; and geographical region. Two-sided (1-alpha) confidence interval of the difference of mean change from baseline to week 48 between groups was calculated. The primary analysis used a re-randomization test. The re-randomization test, also referred to as a randomization test or permutation test, is a type of statistical significance test in which the distribution of the test statistic under the null hypothesis is obtained by calculating all possible values of the test statistic under rearrangements of the labels on the observed data points. The proportion of replicates for which the p-value of treatment factor is at least as small as the p-value of treatment factor from the original data was calculated. In this proportion the observed p-value of treatment factor is also accounted for as one replicate in numerator and denominator. This proportion is the p-value for the randomization test. […] To control overall family-wise type I error rate at the study level, analyses of efficacy was conducted in a stepwise manner (fixed sequence method). Fixed sequence method ensures that the population claimed and treated with a selected dosage will be done by controlling the global family-wise error rate at the 0.0311 level for the primary analysis. […]

people with ALS = settings: cited from earlier work

For `Cc1ccc(NC(=O)c2ccc(CN3CCN(C)CC3)cc2)cc1Nc1nc(-c2cccnc2)cs1` [Masitinib (4.5), 4-(4-methylpiperazin-1-ylmethyl)-N-[4-methyl-3-(4-pyridin-3ylthiazol-2-ylamino)phenyl]benzamide], the “Δ ALSFRS-R = (least squares means) change from baseline to week 48 in ALSFRS-R score” value ([1]; final AB10015, faster progressor subgroup (≥1.1 pts/m), masitinib 4.5 mg/kg/day plus riluzole, comparison with placebo arm) was −17.9268, the “Δ ALSFRS-R = (least squares means) change from baseline to week 48 in ALSFRS-R score” value ([1]; final AB10015, masitinib 4.5 mg/kg/day treated faster progressors (≥1.1 pts/m), comparison moderately aggressive vs faster progressors) was −25.0567 and the “Δ ALSFRS-R = (least squares means) change from baseline to week 48 in ALSFRS-R score” value ([1]; final AB10015, masitinib 4.5 mg/kg/day treated faster progressors (≥1.1 pts/m), comparison non-aggressive vs faster progressors) was −18.2920. For the same molecule, the “Δ ALSFRS-R = (least squares means) change from baseline to week 48 in ALSFRS-R score” value ([1]; final AB10015, masitinib 4.5 mg/kg/day treated moderately aggressive (≥0.8 to <1.1 pts/m), comparison moderately aggressive vs faster progressors) was −15.7258, the “Δ ALSFRS-R = (least squares means) change from baseline to week 48 in ALSFRS-R score” value ([1]; final AB10015, masitinib 4.5 mg/kg/day treated moderately aggressive plus aggressive (≥0.8 pts/m), comparison with non-aggressive) was −15.9080 and the “Δ ALSFRS-R = (least squares means) change from baseline to week 48 in ALSFRS-R score” value ([1]; final AB10015, masitinib 4.5 mg/kg/day treated non-aggressive (<0.8 pts/m), comparison non-aggressive vs faster progressors) was −7.4509. For the same molecule, the “Δ ALSFRS-R = (least squares means) change from baseline to week 48 in ALSFRS-R score” value ([1]; final AB10015, masitinib 4.5 mg/kg/day treated non-aggressive (<0.8 pts/m), comparison non-aggressive vs moderately aggressive plus aggressive) was −7.8085, the “Delta [CI] = absolute difference between subpopulations in Δ ALSFRS-R” value ([1]; final AB10015, masitinib 4.5 mg/kg/day treated patients, moderately aggressive (≥0.8 to <1.1 pts/m) vs faster progressors (≥1.1 pts/m), week 48, CI [−19.4226, 0.761], P=0.0687) was −9.3308[−19.4226; and the “Delta [CI] = absolute difference between subpopulations in Δ ALSFRS-R” value ([1]; final AB10015, masitinib 4.5 mg/kg/day treated patients, non-aggressive (<0.8 pts/m) vs moderately aggressive plus aggressive (≥0.8 pts/m), week 48, CI [−12.3719, −3.8271], P=0.0003) was −8.0995[−12.3719;. The “Δ ALSFRS-R = (least squares means) change from baseline to week 48 in ALSFRS-R score” value ([1]; final AB10015, non-aggressive subgroup (<0.8 pts/m), masitinib 4.5 mg/kg/day plus riluzole, comparison with placebo arm) was −8.2552, the “Δ ALSFRS-R = (least squares means) change from baseline to week 48 in ALSFRS-R score” value ([1]; final AB10015, normal progressor subgroup (<1.1 pts/m), masitinib 4.5 mg/kg/day plus riluzole, comparison with placebo arm) was −8.7045 and the “Δ ALSFRS-R = (least squares means) change from baseline to week 48 in ALSFRS-R score” value ([1]; final AB10015, overall study population (normal progressor and faster progressor), masitinib 4.5 mg/kg/day plus riluzole, comparison with placebo arm) was −10.7019. For the same molecule, the “conclusion on treatment effectiveness” value ([1]; final analysis, ALS patients with progression of ALSFRS-R score prior to treatment initiation of less than 1.1 points per month) was “effective treatment”, the “Δ ALSFRS-R = (least squares means) change from baseline to week 48 in ALSFRS-R score” value ([1]; final analysis, masitinib 4.5 mg/kg/day treated faster progressors (>1.1 pts/m), comparison normal vs faster progressors) was −19.5855 and the “Δ ALSFRS-R = (least squares means) change from baseline to week 48 in ALSFRS-R score” value ([1]; final analysis, masitinib 4.5 mg/kg/day treated normal progressors (<1.1 pts/m), comparison normal vs faster progressors) was −8.3939. For the same molecule, the “Δ ALSFRS-R = (least squares means) change from baseline to week 48 in ALSFRS-R score” value ([1]; final analysis, moderately aggressive subgroup (≥0.8 to <1.1 pts/m), masitinib 4.5 mg/kg/day plus riluzole, comparison with placebo arm) was −11.0031, the “conclusion on treatment effectiveness” value ([1]; final analysis, progression of ALSFRS-R score of at least 1.1 points per month (aggressive ALS)) was “ineffective treatment” and the “conclusion on treatment effectiveness” value ([1]; final analysis, progression of ALSFRS-R score of less than 0.8 points per month (non-aggressive ALS)) was “most effective”. The “conclusion on treatment effectiveness” value ([1]; final analysis, progression of ALSFRS-R score of ≥0.8 to <1.1 points per month (moderately aggressive ALS), to a lesser extent than non-aggressive) was “effective”, the “difference between treatment-arms (masitinib versus placebo) in ALSFRS-R change from baseline to week 48” value ([1]; final, faster progressors subpopulation (≥1.1 points per month), 4.5 mg/kg/day) was “No significant difference” and the “average decrease in ALSFRS-R score” value ([1]; final, masitinib 4.5 mg/kg/day treated faster progressors, week 48) was 19.6 points. The “average decrease in ALSFRS-R score” value ([1]; final, masitinib 4.5 mg/kg/day treated normal progressors, week 48) was 8.4 points, the “difference in decrease of ALSFRS-R score between normal progressors and faster progressors” value ([1]; final, masitinib 4.5 mg/kg/day treated patients, week 48, P<0.001) was 11.2 points and the “treatment effect in terms of ALSFRS-R score of moderately aggressive ALS patients over aggressive ALS patients” value ([1]; final, masitinib treated, ≥0.8 to <1.1 vs ≥1.1 points per month) was “strong trend in treatment effect”. The “retardation in ALSFRS-R score, difference masitinib versus placebo” value ([1]; final, moderately aggressive ALS patients (≥0.8 to <1.1 points per month), 4.5 mg/kg/day, week 48) was 2.2 points, the “change in ALSFRS-R score” value ([1]; final, moderately aggressive ALS patients (≥0.8 to <1.1 points per month), masitinib 4.5 mg/kg/day, week 48, placebo −13.2) was −11 points and the “retardation in ALSFRS-R score, difference masitinib versus placebo” value ([1]; final, non-aggressive ALS patients (<0.8 points per month), 4.5 mg/kg/day, week 48) was 3.4 points. For the same molecule, the “change in ALSFRS-R score” value ([1]; final, non-aggressive ALS patients (<0.8 points per month), masitinib 4.5 mg/kg/day, week 48, placebo −11.7) was −8.3 points, the “difference in ALSFRS-R score between masitinib and placebo” value ([1]; final, normal progressors (<1.1 points per month), 4.5 mg/kg/day, week 48) was 3.4 points and the average decrease in ALSFRS-R score ([1]; final, normal progressors (<1.1 points per month), masitinib 4.5 mg/kg/day, week 48, placebo −12.1, P=0.0142) was 8.7 points. For the same molecule, the “difference between treatment-arms (masitinib versus placebo) in ALSFRS-R change from baseline to week 48” value ([1]; final, overall study population (normal progressor and faster progressor patients), 4.5 mg/kg/day, P=0.11) was “no significant difference”, the “Δ ALSFRS-R = (least squares means) change from baseline to week 48 in ALSFRS-R score” value ([1]; interim AB10015, faster progressor subgroup (≥1.1 points/month), masitinib 4.5 mg/kg/day plus riluzole, comparison with placebo arm) was −20.77 and the “Δ ALSFRS-R = (least squares means) change from baseline to week 48 in ALSFRS-R score” value ([1]; interim AB10015, masitinib 4.5 mg/kg/day treated faster progressors (≥1.1 points/month), subpopulation comparison normal vs faster) was −17.90. For the same molecule, the “Δ ALSFRS-R = (least squares means) change from baseline to week 48 in ALSFRS-R score” value ([1]; interim AB10015, masitinib 4.5 mg/kg/day treated normal progressors (<1.1 points/month), subpopulation comparison normal vs faster) was −5.57, the “Δ ALSFRS-R = (least squares means) change from baseline to week 48 in ALSFRS-R score” value ([1]; interim AB10015, normal progressor subgroup (<1.1 points/month), masitinib 4.5 mg/kg/day plus riluzole, comparison with placebo arm) was −9.02 and the “difference between treatment-arms (masitinib versus placebo) in ALSFRS-R change from baseline to week 48” value ([1]; interim, faster progressor subpopulation, 4.5 mg/kg/day) was “No significant difference”. The “average decrease in ALSFRS-R score” value ([1]; interim, masitinib 4.5 mg/kg/day treated faster progressor (aggressive ALS) patients, week 48) was 17.9 points, the “average decrease in ALSFRS-R score” value ([1]; interim, masitinib 4.5 mg/kg/day treated normal progressor (non-aggressive or moderately aggressive ALS) patients, week 48) was 5.57 points and the “average decrease in ALSFRS-R score” value ([1]; interim, normal progressors, masitinib 4.5 mg/kg/day, baseline to week 48, placebo 14.51, P=0.0032) was 9.02 points.
For `Nc1nc2ccc(OC(F)(F)F)cc2s1` [riluzole, 6-(trifluoromethoxy)benzothiazol-2-amine], the “effect on patient function” value (people with ALS; any of the randomized trials considered separately) is given as “no beneficial effect”, the “effect on bulbar and limb function” value (people with ALS; data of the trials combined, not on muscle strength, to be interpreted with caution) is given as “small beneficial effect” and the “safety of the drug” value (people with ALS; riluzole 100 mg, meta-analysis) is given as “not a major concern”.
